{"source": "patent US20220244245A1", "about": "“A METHOD OF PROFILING THE ENERGETIC METABOLISM OF A POPULATION OF CELLS” (INSERM (Institut National de la Santé et de la Recherche …, priority 2019, published 2022)", "key": {"Flt3L-bmDC": {"tested_on": "Flt3L-bmDC", "test": "ZENITH: protein synthesis (puromycin incorporation, flow cytometry) in Flt3L-bmDC subsets, WT and PERK KO", "format": "cell-based, mouse", "conditions": "short 2-DG treatment; DC subsets from WT PERKflox/flox and CD11c-CRE PERKflox/flox (PERK KO)", "experimental": "Mouse splenocytes from WT C57BL/6J (Jackson) or PERK KO C57BL/6J background mice (Zhang et al., 2002) were cultured in DMEM containing 5% of Fetal Calf Serum (FCS) and 50 μM of 2-Mercaptoethanol (Mouse cells culture media, MCCM) at 37° C. 5% of CO2 GM-CSF BM-derived dendritic cells (GM-bmDCs) were differentiated in vitro from the bone marrow of 6-8-week-old male mice, using GM-CSF, produced by J558L cells. Bone marrow progenitors were plated at 0.8×10^6 cells/ml, 5 ml/well in 6-well plates, and cultivated with RPMI (GIBCO), 5% FCS (Sigma-Aldrich), 20 μg/ml gentamycin (Sigma-Aldrich), 50 μM β-mercaptoethanol (VWR), and GM-CSF. The medium was replaced every 2 days; BM-derived DCs were used for experiments at day 6. Similarly, FLT3L BM-derived dendritic cells (FLT3L-bmDCs) were differentiated by adding FLT3L to RPMI, 10% of Fetal Calf Serum (FCS) and 50 μM of 2-Mercaptoethanol (Mouse cells culture media, MCCM) during 6 days at 37° C. 5% of CO2. To obtain splenocytes, eight weeks old wild type C57BL/6J mice were sacrificed by cervical dislocation and splenectomized. Single cells suspentions from the spleens were generated and cultured in MCCM as previously described. […]\nFlow cytometry was conducted using BD LSR II and BD LSR Fortessa X-20 machine (BD Biosciences™) and data were analyzed with FlowJo (Tree Star™) and/or Cytobank. […]"}, "MEFs": {"tested_on": "MEFs", "test": "ATP measurement (Cell titer-Glo luminescence) in MEFs", "format": "cell-based, mouse", "experimental": "20×104 MEFs were seeded in 100 µl of 5% FCS DMEM culture media ON in opaque 96 well plates. After, 100 ul of Cell titer-Glo luminiscence ATP reconstituted buffer and substrate (Promega, Cat. No. G7570) was added to each well and Luminiscence was measured after 10 minutes following manufacturer instructions. A standard curve with ATP was performed using the same kit and following manufacturer instructions."}}, "data": [{"compound": "O=CC[C@@H](O)[C@H](O)[C@H](O)CO", "note": "[2-DG, 2-Deoxy-D-Glucose]", "values": [{"measurement": "protein synthesis in response to 2-DG", "setting": "Flt3L-bmDC", "value": "decrease protein synthesis"}]}, {"compound": "C[C@@H]1C[C@@H]([C@H](O)CC2CC(=O)NC(=O)C2)C(=O)[C@@H](C)C1", "note": "[CHX, Cycloheximide]", "values": [{"measurement": "pool of ATP", "setting": "MEFs; MEFs, added on top of Oligo+2-DG, 5 minutes of treatment, compared to Oligo+2-DG treatment (Co), FIG. 2A", "value": "significantly higher"}]}, {"compound": "CC[C@H]1/C=C/C=C/C[C@@H](C)[C@H](O)[C@@](C)(O)C(=O)[C@@H](C)[C@H](O)[C@@H](C)C(=O)[C@@H](C)[C@H](O)[C@@H](C)/C=C/C(=O)O[C@@H]2[C@H](C)[C@H](CC1)O[C@]1(CC[C@H](C)[C@H](C[C@@H](C)O)O1)[C@H]2C", "note": "[Oligomycin]", "values": [{"measurement": "levels of ATP", "setting": "MEFs; MEFs treated 20-30 minutes with the metabolic inhibitor, FIGS. 3A and 3B", "value": "unchanged"}]}]}
